Experimental data as given in BindingDB's records for doi:10.1021/jm050373g (Merck Research Laboratories, 2005).

Each compound was assayed against PPAR-alpha (Mesocricetus auratus) (assay: Effective concentration against hamster PPAR-alpha in Gal4 transactivation assay).

Row | EC50 | Compound
1 | 0.402 µM | CCC1(C(=O)O)Cc2cc(OCCCOc3ccc(OCC(F)(F)F)cc3Cl)ccc2O1 (centres undefined) [5-{3-[2-Chloro-4-(2,2,2-trifluoro-ethoxy)-phenoxy]-propoxy}-2-ethyl-2,3-dihydro-benzofuran-2-carboxylic acid]
2 | 0.28 µM | CCC1(C(=O)O)Cc2cc(OCCCOc3ccc(C(C)(C)C)cc3Cl)ccc2O1 (centres undefined) [5-[3-(4-tert-Butyl-2-chloro-phenoxy)-propoxy]-2-ethyl-2,3-dihydro-benzofuran-2-carboxylic acid]
3 | 0.42 µM | CC(C)[C@@]1(C(=O)O)Cc2cc(OCCCOc3cc(C(F)(F)F)ccc3Cl)ccc2O1 [(R)-5-[3-(2-Chloro-5-trifluoromethyl-phenoxy)-propoxy]-2-isopropyl-2,3-dihydro-benzofuran-2-carboxylic acid]
4 | 0.37 µM | CC(C)[C@@]1(C(=O)O)Cc2cc(OCCOc3ccc(OC(F)(F)F)cc3Cl)ccc2O1 [(R)-5-[2-(2-Chloro-4-trifluoromethoxy-phenoxy)-ethoxy]-2-isopropyl-2,3-dihydro-benzofuran-2-carboxylic acid]
